Test results as given in patent publication US6235891A, “Glucocorticoid receptor agonist and decreased PP5” (South Alabama Medical Science Foundation, priority 1999, dated 2001).

How the values were obtained:
PP5 mRNA = assay: Northern blot analysis of PP5 mRNA expression in A549 cells; type: cell-based, human; conditions: doses of 25 to 500 nM, read-out: IC50 for reduction of PP5 mRNA levels
Description: The oligonucleotides shown in Table 1 were designed using the Genbank sequences HSSERTHRP (Genbank accession number X92121), HSRNAPPP5 (Genbank accession number X89416) and PPP5C (Genbank accession number U25174), synthesized and tested for inhibition of PP5 mRNA expression in A549 cells using a Northern blot assay. All oligonucleotides shown in Table 1 are chimeric oligonucleotides with central 2'-deoxy "gaps," which have phosphorothioate backbones, flanked on both sides by 2'-methoxyethoxy (2'-MOE) "wings" (shown in bold), which have phosphodiester backbones. All cytosines in the 2'-MOE wings are 5-methylcytosines.
In the initial screen, A549 cells were treated with oligonucleotides at a concentration of 300 nM oligonucleotide for four hours in the presence of […] lipofectin. Results were normalized and expressed as a percent of control. The effect of each oligonucleotide on levels of PP5 mRNA, expressed as approximate percent inhibition compared to control, is shown in Table 1. In this initial screen, oligonucleotides giving a reduction of PP5 mRNA of approximately 50% or greater were considered active. […] These sequences (SEQ ID NO: 1, 2, 3, 4, 6, 7 and 12, respectively, SEQ ID Nos shown in bold in Table 1) are therefore preferred.
These oligonucleotides were tested for their ability to reduce PP5 mRNA levels in A549 cells, using oligonucleotide doses of 25 to 500 nM.
The human lung tumor cell line A549 was obtained from the American Type Culture Collection (Rockville Md.) and were grown in DMEM (Gibco BRL, Gaithersburg Md.), supplemented with 10% fetal calf. Cells were seeded on 60 mm plates. When they reached 70% confluency, they were washed with DMEM and 1 ml of DMEM containing 15 μg/ml DOTMA/DOPE (Lipofectin®, GIBCO-BRL) and oligonucleotide at desired concentration was added. Duplicate dishes were used for each treatment condition. After 4 hours of treatment at 37°, cells were washed and cultured in fresh DMEM containing 10% fetal bovine serum for an additional 17 hours. Cells were then harvested and total RNA was extracted with TRIzol Reagent (GIBCO-BRL) according to manufacturer's protocol. Total RNA (20 μg) was fractionated on a 1% agarose gel containing formaldehyde, and transferred to a DURLON-UV (Stratagene) nylon membrane. Following UV crosslinking, the filters were hybridized with the appropriate protein phosphatase probe. The ^32 P-labeled human PP cDNA probes are generated with DECAPrime® DNA Labeling Kit (Ambion) according to the manufacturer's protocol. Hybridization was performed in a hybridization solution containing 50% formamide at 42° for 16 hours. This was followed by two low stringency washes (2×SSC) at room temperature and two high stringency washes (0.1×SSC/0.5% SDS) at 55° C. Hybridization signals were visualized by autoradiography, and filters were then stripped and reprobed with a ^32 P-labeled glyceraldehyde-3-phosphate dehydrogenase (GAPDH) probe to confirm equal loading. The densities of hybridization signals were measured with the NIH Image program (ImagePC).
The cells were harvested, and total RNA was extracted with TRIzol® Reagent according to the methods of the manufacturer. Total RNA (20 μg) was fractionated on 1% agarose gels containing formaldehyde and transferred to DURLON-UV nylon membranes (Stratagene). Following UV cross-linking, the filters were hybridized with a [α^32 P]probe for human PP5. The human PP5 cDNA probe was generated from the full length coding region of PP5 and [α^32 P]-dATP was labeled with DECAprime® DNA Labeling Kit according to the manufacturer's protocol. Hybridization was performed in the presence of 50% formamide, 0.1 M Pipes, 0.8 M NaCl, 5×Denhardt's solution, 100 μg/ml denatured herring sperm DNA, 1×10^6 cpm/ml [α-^32 P]-labeled probe and 10% dextran sulfate at 42° C. for 16 hours. Following hybridization, the membrane was subjected to two low stringency washes (2×SSC) at room temperature and then two high stringency washes (0.1×SSC/0.5% SDS) at 55° C. […]

A549 cells = assay: [3H]-thymidine incorporation (DNA synthesis) in A549 cells; type: cell-based, human; conditions: 300 nM
Procedure: Cells were pulse-labeled with [^3 H]-thymidine for 5 hours at intervals over the next five days. Cells were lysed and [^3 H]-thymidine incorporation (indicative of DNA synthesis) was determined by liquid scintillation counting.
At timed intervals during the next 5 days, cells were pulse-labeled with [^3 H]-thymidine (0.5 μCi/ml) for 5 hours. […] The results given are the mean of three independent experiments.

In the case of “ISIS 15534: chimeric PP5 antisense oligonucleotide, P=O wings, P=S deoxy gap; GGGCCCTATTGCTTGAGTGG, SEQ ID NO: 12 (sugars by position and backbone not given here; chimeric, phosphodiester wings, phosphorothioate deoxy gap)”, the IC50 (PP5 mRNA) is reported as about 135 nM, the “Decrease in [3H]-thymidine incorporation compared to control” value (from here on “Decrease in [3H]-thymidine incorporation”) (A549 cells; day 2) is reported as “approximately 85%” and the “Decrease in [3H]-thymidine incorporation” value (A549 cells; day 3) is reported as about 88%. The “Decrease in [3H]-thymidine incorporation” value (A549 cells; day 4) was about 62% and the “[3H]-thymidine incorporation relative to untreated cells” value (A549 cells; day 5) was “approximately equivalent in treated and untreated cells”.
